This passage reports EC50 results from patent US8222404B2, “[1,2,4]Thiadiazin-3-yl acetic acid compound and methods of making the acetic acid compound” (Anadys Pharmaceuticals, Inc., priority 2008, dated 2012).

As usually defined, the pEC50 is the EC50 on a negative log10 scale, so that one unit is a factor of ten.

SMILES strings stand for the structures. pEC50: −log10 of the molar value.

This assay deals with HCV Huh-luc/neo-ET replicon cells. Nature of the assay: Luciferase-Based HCV Replicon Assay (EC50 (1b)). It is filed as cell-based. The settings on record: Hepatitis C virus, 72 hours exposure, luciferase activity. The protocol:
Luciferase-Based HCV Replicon Assay Protocol (EC50 (1b))
The cell culture component of the assay was performed essentially as described by Bartenschlager et al., Hepatology 2002, 35, 694-703, wherein exponentially growing HCV Huh-luc/neo-ET replicon cells were seeded at 6×10^3 cells/well in 96 well assay plate. 24 hours later the cells were treated with various concentrations of compound in triplicate. After 72 hours exposure to the compound, the luciferase activity in the wells was determined using Bright-Glo reagent (Promega, Madison, Wis.) with a luminometer (Wallac 1420 Multilabel HTS Counter Victor 2). The background control was replicon cells treated with 100 nM BILN-2061, an inhibitor of the HCV protease. % Inhibition was determined for each compound concentration in relation to the negative (no compound) control to calculate the EC50 (1b).
As to `CS(=O)(=O)NCc1csc2c1S(=O)(=O)N=C(C1=C(O)C3CCCCC3N(Cc3ccc(F)c(F)c3)C1=O)N2` (racemic) [Example 134, (rac-cis)-N-{3-[1-(3,4-Difluoro-benzyl)-4-hydroxy-2-oxo-1,2,4a,5,6,7,8,8a-octahydro-quinolin-3-yl]-1,1-dioxo-1,4-dihydro-1λ^6-thieno[2,3-e][1,2,4]thiadiazin-7-ylmethyl}-methanesulfonamide], the pEC50 is < 6.00.

`CS(=O)(=O)NCc1csc2c1S(=O)(=O)N=C(C1=C(O)C(C3CCCC3)CN(Cc3ccc(F)cc3)C1=O)N2` (racemic) [Example 16, rac-N-{3-[5-Cyclopentyl-1-(4-fluoro-benzyl)-4-hydroxy-2-oxo-1,2,5,6-tetrahydro-pyridin-3-yl]-1,1-dioxo-1,4-dihydro-1λ^6-thieno[2,3-e][1,2,4]thiadiazin-7-ylmethyl}-methanesulfonamide]: the negative-log EC50 (pEC50) is 7.00 to 7.70.

`COc1ccc(CN2C(=O)C(C3=NS(=O)(=O)c4c(CNS(C)(=O)=O)csc4N3)=C(O)C3CCCCCC32)c(OC)c1` (racemic) [Example 79, (rac-cis)-N-{3-[1-(2,4-Dimethoxy-benzyl)-4-hydroxy-2-oxo-2,4a,5,6,7,8,9,9a-octahydro-1H-cyclohepta[b]pyridin-3-yl]-1,1-dioxo-1,4-dihydro-1λ^6-thieno[2,3-e][1,2,4]thiadiazin-7-ylmethyl}-methanesulfonamide]: the negative-log EC50 (pEC50) was < 6.00.

On to `CS(=O)(=O)NCc1csc2c1S(=O)(=O)N=C(C1=C(O)[C@@H]3CCC[C@@H]3N(Cc3ccc(F)cc3F)C1=O)N2` [Example 112, (4aR,7aS)-N-{3-[1-(2,4-Difluoro-benzyl)-4-hydroxy-2-oxo-2,4a,5,6,7,7a-hexahydro-1H-[1]pyrindin-3-yl]-1,1-dioxo-1,4-dihydro-1λ^6-thieno[2,3-e][1,2,4]thiadiazin-7-ylmethyl}-methanesulfonamide], for which the pEC50 is 7.00 to 7.70.

For `CS(=O)(=O)NCc1csc2c1S(=O)(=O)N=C(C1=C(O)[C@@H]3[C@@H]4CC[C@@H](C4)[C@@H]3NC1=O)N2` [Example 81, N-[3-((1S,2S,7R,8R)-6-Hydroxy-4-oxo-3-aza-tricyclo[6.2.1.0^2,7]undec-5-en-5-yl)-1,1-dioxo-1,4-dihydro-1λ^6-thieno[2,3-e][1,2,4]thiadiazin-7-ylmethyl]-methanesulfonamide], the pEC50 is < 6.00.

Turning to `CS(=O)(=O)NCc1csc2c1S(=O)(=O)N=C(C1=C(O)[C@@H]3[C@H]4CC[C@H](C4)[C@@H]3N(Cc3ccc(F)cc3)C1=O)N2` [Example 1, (1R,2S,7R,8S)—N-{3-[3-(4-Fluoro-benzyl)-6-hydroxy-4-oxo-3-aza-tricyclo[6.2.1.0^2,7]undec-5-en-5-yl]-1,1-dioxo-1,4-dihydro-1λ^6-thieno[2,3-e][1,2,4]thiadiazin-7-ylmethyl}-methanesulfonamide], the pEC50 was ≥ 8.30.

Regarding `CC(C)(C)CCN1C(=O)C(C2=NS(=O)(=O)c3c(CNS(C)(=O)=O)csc3N2)=C(O)C2C3CCC(C4CC43)C21` (racemic) [Example 24, (rac-di-endo)-N-{3-[3-(3,3-Dimethyl-butyl)-6-hydroxy-4-oxo-3-aza-tetracyclo[6.3.2.0^2,7.0^9,11]tridec-5-en-5-yl]-1,1-dioxo-1,4-dihydro-1λ^6-thieno[2,3-e][1,2,4]thiadiazin-7-ylmethyl}-methanesulfonamide], the negative-log EC50 (pEC50) is ≥ 8.30.

The compound `CS(=O)(=O)NCc1csc2c1S(=O)(=O)N=C(C1=C(O)[C@@H]3[C@@H]4CC[C@@H](C4)[C@@H]3N(Cc3ccc(F)c(F)c3)C1=O)N2` [Example 41, N-{3-[(1S,2S,7R,8R)-3-(3,4-Difluoro-benzyl)-6-hydroxy-4-oxo-3-aza-tricyclo[6.2.1.0^2,7]undec-5-en-5-yl]-1,1-dioxo-1,4-dihydro-1λ^6-thieno[2,3-e][1,2,4]thiadiazin-7-ylmethyl}-methanesulfonamide] had a negative logarithm of the EC50 (pEC50) of 7.70 to 8.30.

Consider `COc1ccc(CN2C(=O)C(C3=NS(=O)(=O)c4c(CNS(C)(=O)=O)csc4N3)=C(O)C3CCCCC32)c(OC)c1` (racemic) [Example 78, (rac-cis)-N-{3-[1-(2,4-Dimethoxy-benzyl)-4-hydroxy-2-oxo-1,2,4a,5,6,7,8,8a-octahydro-quinolin-3-yl]-1,1-dioxo-1,4-dihydro-1λ^6-thieno[2,3-e][1,2,4]thiadiazin-7-ylmethyl}-methanesulfonamide], for which the negative logarithm of the EC50 (pEC50) was < 6.00.

For `NS(=O)(=O)NCc1csc2c1S(=O)(=O)N=C(C1=C(O)[C@@H]3[C@H]4CC[C@H](C4)[C@@H]3N(Cc3ccc(F)cc3)C1=O)N2` [Example 34, N-{3-[(1R,2S,7R,8S)-3-(4-Fluoro-benzyl)-6-hydroxy-4-oxo-3-aza-tricyclo[6.2.1.0^2,7]undec-5-en-5-yl]-1,1-dioxo-1,4-dihydro-1λ^6-thieno[2,3-e][1,2,4]thiadiazin-7-ylmethyl}-sulfamide], the negative logarithm of the EC50 (pEC50) was 6.00 to 7.00.

In the case of `CS(=O)(=O)NCc1csc2c1S(=O)(=O)N=C(C1=C(O)C3CCCCCC3N(CC3CCCCC3)C1=O)N2` (racemic) [Example 105, (rac-cis)-N-[3-(1-Cyclohexylmethyl-4-hydroxy-2-oxo-2,4a,5,6,7,8,9,9a-octahydro-1H-cyclohepta[b]pyridin-3-yl)-1,1-dioxo-1,4-dihydro-1λ^6-thieno[2,3-e][1,2,4]thiadiazin-7-ylmethyl]-methanesulfonamide], the negative-log EC50 (pEC50) was 6.00 to 7.00.

With `CCCC1CN(Cc2ccc(F)cc2)C(=O)C(C2=NS(=O)(=O)c3c(CNS(C)(=O)=O)csc3N2)=C1O` (racemic) [Example 15, rac-N-{3-[1-(4-Fluoro-benzyl)-4-hydroxy-2-oxo-5-propyl-1,2,5,6-tetrahydro-pyridin-3-yl]-1,1-dioxo-1,4-dihydro-1λ^6-thieno[2,3-e][1,2,4]thiadiazin-7-ylmethyl}-methanesulfonamide], the pEC50 was 6.00 to 7.00.

For the compound `CS(=O)(=O)NCc1csc2c1S(=O)(=O)N=C(C1=C(O)C3CCCC3N(NC3CCC3)C1=O)N2` (racemic) [Example 27, (rac-cis)-N-[3-(1-cyclobutylamino-4-hydroxy-2-oxo-2,4a,5,6,7,7a-hexahydro-1H-[1]pyrindin-3-yl)-1,1-dioxo-1,4-dihydro-1λ^6-thieno[2,3-e][1,2,4]thiadiazin-7-ylmethyl]-methanesulfonamide], the pEC50 was < 6.00.

Consider `CS(=O)(=O)NCc1csc2c1S(=O)(=O)N=C(C1=C(O)[C@@H]3CCC[C@@H]3N(Cc3ccsc3)C1=O)N2` [Example 127, (4aR,7aS)-N-[3-(4-Hydroxy-2-oxo-1-thiophen-3-ylmethyl-2,4a,5,6,7,7a-hexahydro-1H-[1]pyrindin-3-yl)-1,1-dioxo-1,4-dihydro-1λ^6-thieno[2,3-e][1,2,4]thiadiazin-7-ylmethyl]-methanesulfonamide], for which the pEC50 was 7.70 to 8.30.

The compound `Cc1cc(CN2C(=O)C(C3=NS(=O)(=O)c4c(CNS(C)(=O)=O)csc4N3)=C(O)[C@@H]3[C@H]4CC[C@H](C4)[C@@H]32)ccc1F` [Example 53, N-{3-[(1R,2S,7R,8S)-3-(4-Fluoro-3-methyl-benzyl)-6-hydroxy-4-oxo-3-aza-tricyclo[6.2.1.0^2,7]undec-5-en-5-yl]-1,1-dioxo-1,4-dihydro-1λ^6-thieno[2,3-e][1,2,4]thiadiazin-7-ylmethyl}-methanesulfonamide] gave a pEC50 of 7.70 to 8.30.

As for `CS(=O)(=O)NCc1csc2c1S(=O)(=O)N=C(C1=C(O)[C@@H]3[C@@H]4CC[C@@H](C4)[C@@H]3N(Cc3ccc(F)cc3)C1=O)N2` [Example 89, N-{3-[(1S,2S,7R,8R)-3-(4-Fluoro-benzyl)-6-hydroxy-4-oxo-3-aza-tricyclo[6.2.1.0^2,7]undec-5-en-5-yl]-1,1-dioxo-1,4-dihydro-1λ^6-thieno[2,3-e][1,2,4]thiadiazin-7-ylmethyl}-methanesulfonamide], the negative logarithm of the EC50 (pEC50) was ≥ 8.30.

Turning to `CC(C)CCC1(C)CN(c2ccccc2)C(=O)C(C2=NS(=O)(=O)c3c(CNS(C)(=O)=O)csc3N2)=C1O` (centres unmarked) [Example 31, N-{3-[4-Hydroxy-5-methyl-5-(3-methyl-butyl)-2-oxo-1-phenyl-1,2,5,6-tetrahydro-pyridin-3-yl]-1,1-dioxo-1,4-dihydro-1λ^6-thieno[2,3-e][1,2,4]thiadiazin-7-ylmethyl}-methanesulfonamide], the negative logarithm of the EC50 (pEC50) was < 6.00.

In the case of `CS(=O)(=O)NCc1ccc2c(c1)S(=O)(=O)N=C(C1=C(O)[C@@H]3[C@H]4CC[C@H](C4)[C@@H]3N(Cc3ccc(F)cc3)C1=O)N2` [Example 3, N-{3-[(1R,2S,7R,8S)-3-(4-Fluoro-benzyl)-6-hydroxy-4-oxo-3-aza-tricyclo[6.2.1.0^2,7]undec-5-en-5-yl]-1,1-dioxo-1,4-dihydro-1λ^6-benzo[1,2,4]thiadiazin-7-ylmethyl}-methanesulfonamide], the pEC50 is 6.00 to 7.00.

Consider `CS(=O)(=O)NCc1csc2c1S(=O)(=O)N=C(C1=C(O)C3C4CCC(O4)C3N(Cc3ccsc3)C1=O)N2` (racemic) [Example 61, (rac-di-exo)-N-[3-(6-Hydroxy-4-oxo-3-thiophen-3-ylmethyl-11-oxa-3-aza-tricyclo[6.2.1.0^2,7]undec-5-en-5-yl)-1,1-dioxo-1,4-dihydro-1λ^6-thieno[2,3-e][1,2,4]thiadiazin-7-ylmethyl]-methanesulfonamide], for which the negative-log EC50 (pEC50) was 7.00 to 7.70.

For `CS(=O)(=O)NCc1csc2c1S(=O)(=O)N=C(C1=C(O)[C@@H]3[C@@H]4CC[C@@H](C4)[C@@H]3N(CCC3CC3)C1=O)N2` [Example 107, N-{3-[(1S,2S,7R,8R)-3-(2-Cyclopropyl-ethyl)-6-hydroxy-4-oxo-3-aza-tricyclo[6.2.1.0^2,7]undec-5-en-5-yl]-1,1-dioxo-1,4-dihydro-1λ^6-thieno[2,3-e][1,2,4]thiadiazin-7-ylmethyl}-methanesulfonamide], the negative-log EC50 (pEC50) was 7.00 to 7.70.
